Target: 5-HT6R (Homo sapiens, UniProt P50406)
Assay: Basal cAMP production by constitutively active 5-HT6R in NG108-15 cells (CAMYEL BRET)
Assay type: cell-based
Set-up: expressed in transfected cells; host or cells: NG108-15 (mouse neuroblastoma x rat glioma hybrid), transient co-transfection with CAMYEL, Lipofectamine 2000
Details: NG108-15 cells transiently expressing 5-HT6R
Method: Changes in cyclic AMP levels upon exposure to increasing concentrations of the tested compounds were assessed by BRET (Bioluminescence Resonance Energy Transfer) measurement using a Mithras LB 940 plate reader (Berthold Technologies), as previously described. A detailed description is reported in the Supporting Information.
2. Procedure for determination of functional activity at Gs signaling
2.1. Impact of compound 3e, 3f and 3g on cAMP production in 1321N1 cells The properties of evaluated compounds to inhibit cAMP production induced by 5-CT (1000 nM), a 5-HT6R agonist, was assessed according to previously published procedures. The level of cAMP was measured using frozen recombinant 1321N1 cells expressing the human serotonin 5-HT6R (PerkinElmer). Total cAMP was measured using the LANCE cAMP detection kit (PerkinElmer), according to the manufacturer's recommendations. For quantification of cAMP levels, 2000 cells/well (5 μL) were incubated with mixture of compound 3e, 3f and 3g (5 μL) for 30 min at room temperature in 384-well white opaque microtiter plate. After incubation, the reaction was stopped and cells were lysed by the addition of 10 μL of working solution (5 μL Eu-cAMP and 5 μL ULight-anti-cAMP) for 1 h at room temperature. Time-resolved fluorescence resonance energy transfer (TR-FRET) was detected by an Infinite M1000 Pro (Tecan) using instrument settings from LANCE cAMP detection kit manual. Compound was tested in triplicate at 8 concentrations (10-11–10-4 M). Kb values were calculated from Cheng–Prusoff equation specific for the analysis of functional inhibition curves:
Kb = IC50/(1+A/EC50) where A represents agonist concentration, IC50 the concentration of antagonist producing a 50% reduction in the response to agonist, and EC50 the agonist concentration which causes a half of the maximal response.
1.1.1. Impact of evaluated compounds on cAMP production elicited by constitutively active […]
BRET was measured using a Mithras LB 940 plate reader (Berthold Technologies). […]

5-HT6R, sequence (P50406 whole entry): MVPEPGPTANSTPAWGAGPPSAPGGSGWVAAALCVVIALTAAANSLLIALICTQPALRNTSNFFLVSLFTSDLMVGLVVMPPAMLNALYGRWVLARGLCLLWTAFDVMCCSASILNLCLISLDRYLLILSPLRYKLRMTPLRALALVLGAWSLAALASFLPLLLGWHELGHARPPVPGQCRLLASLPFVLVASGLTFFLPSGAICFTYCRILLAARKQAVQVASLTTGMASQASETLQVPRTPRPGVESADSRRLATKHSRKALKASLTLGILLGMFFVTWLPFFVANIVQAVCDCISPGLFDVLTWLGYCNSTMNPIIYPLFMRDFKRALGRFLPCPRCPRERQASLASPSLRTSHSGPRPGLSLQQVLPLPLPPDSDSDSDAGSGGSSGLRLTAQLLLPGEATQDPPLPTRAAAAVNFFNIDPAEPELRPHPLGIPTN

| SMILES | 5-HT6R Functional Profile at Gs Signaling |
| --- | --- |
| O=S(=O)(c1cccc(N2CCNCC2)c1)N1Cc2ccccc2C1 [3e, 2-{[3-(Piperazin-1-yl)phenyl]sulfonyl}isoindoline] | Neutral antagonist |
| O=S(=O)(c1cccc(N2CCNCC2)c1)N1Cc2cccc(Cl)c2C1 [3f, 4-Chloro-2-{[3-(piperazin-1-yl)phenyl]sulfonyl}isoindoline] | Neutral antagonist |
| O=S(=O)(c1cccc(N2CCNCC2)c1)N1Cc2cccc(Br)c2C1 [3g, 4-Bromo-2-{[3-(piperazin-1-yl)phenyl]sulfonyl}isoindoline] | Neutral antagonist |

Reference: article PMC9855333, “1-(Arylsulfonyl-isoindol-2-yl)piperazines as 5-HT6R Antagonists: Mechanochemical Synthesis, In Vitro Pharmacological Properties and Glioprotective Activity” (Biomolecules, 2022)
